Results taken from the kinase profiling compilation of Christmann-Franck et al. (2016).
Each block holds one molecule with its values, some of them ahead of it.

Tests used:
Assay in all cases: KINOMEscan competition binding
CAMK2B (human) = CAMK2B (human) (UniProt Q13554)
BMP2K (human) = BMP2K (human) (UniProt Q9NSY1)
CAMKK2 (human) = CAMKK2 (human) (UniProt Q96RR4)
CLK2 (human) = CLK2 (human) (UniProt P49760)
CLK4 (human) = CLK4 (human) (UniProt Q9HAZ1)
EPHA3 (human) = EPHA3 (human) (UniProt P29320)
STK3 (mouse) = details: accession and sequence are those of the human protein
DAPK2 (human) = DAPK2 (human) (UniProt Q9UIK4)
SLK (human) = SLK (human) (UniProt Q9H2G2)
RPS6KA2 KD1 (human) = RPS6KA2 KD1 (human) (UniProt Q15349)
STK17A (human) = STK17A (human) (UniProt Q9UEE5)
STK38L (human) = STK38L (human) (UniProt Q9Y2H1)
DAPK3 (human) = DAPK3 (human) (UniProt O43293)
AURKA (human) = AURKA (human) (UniProt O14965)
ULK3 (human) = ULK3 (human) (UniProt Q6PHR2)
AAK1 (human) = AAK1 (human) (UniProt Q2M2I8)
BMX (human) = BMX (human) (UniProt P51813)
RIPK2 (human) = RIPK2 (human) (UniProt O43353)
STK36 (human) = STK36 (human) (UniProt Q9NRP7)
FRK (human) = FRK (human) (UniProt P42685)
PTK6 (human) = PTK6 (human) (UniProt Q13882)
PAK3 (human) = PAK3 (human) (UniProt O75914)
CSNK1G2 (human) = CSNK1G2 (human) (UniProt P78368)
CAMK1G (human) = CAMK1G (human) (UniProt Q96NX5)

STK17A (human), sequence (Q9UEE5 whole entry, looked up): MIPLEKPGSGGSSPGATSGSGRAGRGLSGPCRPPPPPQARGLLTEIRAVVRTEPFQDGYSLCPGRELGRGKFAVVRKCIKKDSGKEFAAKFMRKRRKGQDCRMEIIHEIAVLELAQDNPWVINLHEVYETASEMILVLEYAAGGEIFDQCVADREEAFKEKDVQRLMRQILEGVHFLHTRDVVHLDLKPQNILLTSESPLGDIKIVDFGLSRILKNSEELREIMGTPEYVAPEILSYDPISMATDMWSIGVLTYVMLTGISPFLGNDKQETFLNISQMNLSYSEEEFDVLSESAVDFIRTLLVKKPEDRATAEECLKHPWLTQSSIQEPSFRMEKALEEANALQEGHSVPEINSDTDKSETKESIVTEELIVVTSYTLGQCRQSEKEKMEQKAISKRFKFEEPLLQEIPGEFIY
RIPK2 (human), sequence (O43353 whole entry, looked up): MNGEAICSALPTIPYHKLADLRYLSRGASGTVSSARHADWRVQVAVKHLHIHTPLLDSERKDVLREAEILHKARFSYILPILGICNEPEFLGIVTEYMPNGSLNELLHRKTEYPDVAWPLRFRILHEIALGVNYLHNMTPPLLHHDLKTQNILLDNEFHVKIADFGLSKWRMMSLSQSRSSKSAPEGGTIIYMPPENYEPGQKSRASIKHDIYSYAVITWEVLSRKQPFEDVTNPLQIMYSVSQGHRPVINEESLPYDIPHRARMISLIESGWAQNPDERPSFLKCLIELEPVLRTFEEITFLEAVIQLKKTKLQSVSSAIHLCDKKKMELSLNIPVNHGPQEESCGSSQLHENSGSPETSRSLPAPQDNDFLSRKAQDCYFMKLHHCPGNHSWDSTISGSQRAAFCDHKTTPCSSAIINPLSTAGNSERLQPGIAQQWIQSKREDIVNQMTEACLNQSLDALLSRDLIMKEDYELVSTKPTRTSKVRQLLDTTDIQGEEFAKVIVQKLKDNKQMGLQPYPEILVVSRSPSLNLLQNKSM
CLK4 (human), sequence (Q9HAZ1 whole entry, looked up): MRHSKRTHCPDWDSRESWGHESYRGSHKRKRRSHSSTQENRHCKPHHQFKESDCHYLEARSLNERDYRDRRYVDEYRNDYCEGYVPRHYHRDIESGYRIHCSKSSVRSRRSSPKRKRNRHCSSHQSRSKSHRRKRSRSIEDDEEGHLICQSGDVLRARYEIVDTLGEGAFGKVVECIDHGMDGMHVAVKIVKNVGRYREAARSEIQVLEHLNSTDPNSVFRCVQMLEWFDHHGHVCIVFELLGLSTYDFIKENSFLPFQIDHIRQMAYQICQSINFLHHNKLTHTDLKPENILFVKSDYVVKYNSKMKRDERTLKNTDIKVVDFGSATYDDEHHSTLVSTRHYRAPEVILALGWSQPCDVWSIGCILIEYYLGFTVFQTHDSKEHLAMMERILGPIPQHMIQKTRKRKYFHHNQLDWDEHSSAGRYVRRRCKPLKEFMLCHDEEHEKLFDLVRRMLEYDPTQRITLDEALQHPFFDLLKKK
PTK6 (human), sequence (Q13882 whole entry, looked up): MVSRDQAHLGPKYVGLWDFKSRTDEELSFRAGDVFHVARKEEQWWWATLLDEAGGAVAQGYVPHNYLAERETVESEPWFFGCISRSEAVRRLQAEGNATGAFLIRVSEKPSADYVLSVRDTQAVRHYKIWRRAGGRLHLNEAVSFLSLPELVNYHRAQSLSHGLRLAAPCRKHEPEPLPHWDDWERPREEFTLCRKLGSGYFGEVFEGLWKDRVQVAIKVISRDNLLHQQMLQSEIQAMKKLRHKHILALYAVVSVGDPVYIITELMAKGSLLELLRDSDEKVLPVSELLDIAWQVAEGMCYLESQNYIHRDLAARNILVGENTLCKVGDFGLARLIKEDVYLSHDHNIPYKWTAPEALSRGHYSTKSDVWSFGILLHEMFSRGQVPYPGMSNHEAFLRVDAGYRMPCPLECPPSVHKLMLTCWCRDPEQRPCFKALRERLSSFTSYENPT
STK38L (human), sequence (Q9Y2H1 whole entry, looked up): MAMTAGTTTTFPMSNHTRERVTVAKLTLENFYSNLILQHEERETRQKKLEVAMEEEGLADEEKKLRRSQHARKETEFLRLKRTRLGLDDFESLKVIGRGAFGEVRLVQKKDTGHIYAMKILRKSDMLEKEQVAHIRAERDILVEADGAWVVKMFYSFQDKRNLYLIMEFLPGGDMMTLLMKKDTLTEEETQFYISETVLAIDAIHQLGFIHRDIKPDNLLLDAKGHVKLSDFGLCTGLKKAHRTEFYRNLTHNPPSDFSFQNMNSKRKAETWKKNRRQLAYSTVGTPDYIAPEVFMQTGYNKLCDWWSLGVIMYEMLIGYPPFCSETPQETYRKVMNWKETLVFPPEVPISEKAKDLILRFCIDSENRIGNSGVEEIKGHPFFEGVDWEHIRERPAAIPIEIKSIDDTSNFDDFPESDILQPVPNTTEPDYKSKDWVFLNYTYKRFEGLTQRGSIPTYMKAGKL
EPHA3 (human), sequence (P29320 whole entry, looked up): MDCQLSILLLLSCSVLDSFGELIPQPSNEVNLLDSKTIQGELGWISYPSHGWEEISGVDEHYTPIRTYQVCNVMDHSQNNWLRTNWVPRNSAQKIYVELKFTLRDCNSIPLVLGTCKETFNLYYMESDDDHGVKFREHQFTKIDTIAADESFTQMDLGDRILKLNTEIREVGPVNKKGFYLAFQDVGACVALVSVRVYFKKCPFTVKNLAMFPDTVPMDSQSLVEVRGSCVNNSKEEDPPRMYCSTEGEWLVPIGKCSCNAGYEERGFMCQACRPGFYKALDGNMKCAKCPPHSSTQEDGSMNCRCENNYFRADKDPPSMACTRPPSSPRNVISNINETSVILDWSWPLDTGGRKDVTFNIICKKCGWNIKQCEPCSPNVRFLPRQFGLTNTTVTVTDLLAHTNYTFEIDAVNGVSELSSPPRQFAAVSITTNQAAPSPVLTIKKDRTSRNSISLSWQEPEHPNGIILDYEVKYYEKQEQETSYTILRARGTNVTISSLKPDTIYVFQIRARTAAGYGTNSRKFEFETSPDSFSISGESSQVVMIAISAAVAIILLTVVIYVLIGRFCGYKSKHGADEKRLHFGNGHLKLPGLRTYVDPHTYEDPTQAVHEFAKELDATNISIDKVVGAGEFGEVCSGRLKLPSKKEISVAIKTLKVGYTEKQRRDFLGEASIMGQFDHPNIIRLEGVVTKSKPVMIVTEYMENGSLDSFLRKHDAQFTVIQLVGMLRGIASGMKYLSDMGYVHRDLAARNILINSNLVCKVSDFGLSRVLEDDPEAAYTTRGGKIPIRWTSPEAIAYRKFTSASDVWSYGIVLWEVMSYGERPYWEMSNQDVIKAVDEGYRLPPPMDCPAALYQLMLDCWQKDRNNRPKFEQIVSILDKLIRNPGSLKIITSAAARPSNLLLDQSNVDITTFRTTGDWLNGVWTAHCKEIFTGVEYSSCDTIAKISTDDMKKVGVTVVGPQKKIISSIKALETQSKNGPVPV
ULK3 (human), sequence (Q6PHR2 whole entry, looked up): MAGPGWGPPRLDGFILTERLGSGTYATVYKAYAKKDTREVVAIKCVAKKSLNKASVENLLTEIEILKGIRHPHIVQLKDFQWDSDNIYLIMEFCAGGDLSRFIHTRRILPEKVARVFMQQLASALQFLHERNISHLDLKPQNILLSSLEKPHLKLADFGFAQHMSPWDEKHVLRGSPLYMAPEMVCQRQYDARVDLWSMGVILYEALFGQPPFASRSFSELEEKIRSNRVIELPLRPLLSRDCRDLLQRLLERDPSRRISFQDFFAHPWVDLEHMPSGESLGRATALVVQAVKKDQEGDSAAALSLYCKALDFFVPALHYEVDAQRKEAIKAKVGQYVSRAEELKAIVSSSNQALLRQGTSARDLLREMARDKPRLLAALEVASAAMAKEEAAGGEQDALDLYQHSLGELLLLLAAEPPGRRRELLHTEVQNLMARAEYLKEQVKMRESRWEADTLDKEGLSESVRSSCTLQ
DAPK2 (human), sequence (Q9UIK4 whole entry, looked up): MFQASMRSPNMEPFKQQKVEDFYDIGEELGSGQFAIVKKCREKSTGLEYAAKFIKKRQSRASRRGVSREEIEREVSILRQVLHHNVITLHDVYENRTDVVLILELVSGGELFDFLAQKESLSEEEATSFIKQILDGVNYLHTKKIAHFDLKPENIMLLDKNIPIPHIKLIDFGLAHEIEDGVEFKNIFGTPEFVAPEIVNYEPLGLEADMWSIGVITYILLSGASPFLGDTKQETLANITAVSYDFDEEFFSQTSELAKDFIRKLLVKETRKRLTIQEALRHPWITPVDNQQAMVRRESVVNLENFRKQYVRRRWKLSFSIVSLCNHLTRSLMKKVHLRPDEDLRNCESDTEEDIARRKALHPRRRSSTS
AURKA (human), sequence (O14965 whole entry, looked up): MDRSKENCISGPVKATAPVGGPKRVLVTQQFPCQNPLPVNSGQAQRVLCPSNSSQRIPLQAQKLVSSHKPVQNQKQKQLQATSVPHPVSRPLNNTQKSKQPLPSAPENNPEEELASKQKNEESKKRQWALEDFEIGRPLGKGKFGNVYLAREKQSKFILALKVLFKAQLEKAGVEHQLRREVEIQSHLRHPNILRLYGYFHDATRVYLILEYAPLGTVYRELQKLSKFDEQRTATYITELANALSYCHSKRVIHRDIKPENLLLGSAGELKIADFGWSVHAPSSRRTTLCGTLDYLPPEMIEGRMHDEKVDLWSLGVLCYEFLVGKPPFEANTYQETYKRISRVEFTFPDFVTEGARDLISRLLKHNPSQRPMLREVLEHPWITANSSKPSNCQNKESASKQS
CSNK1G2 (human), sequence (P78368 whole entry, looked up): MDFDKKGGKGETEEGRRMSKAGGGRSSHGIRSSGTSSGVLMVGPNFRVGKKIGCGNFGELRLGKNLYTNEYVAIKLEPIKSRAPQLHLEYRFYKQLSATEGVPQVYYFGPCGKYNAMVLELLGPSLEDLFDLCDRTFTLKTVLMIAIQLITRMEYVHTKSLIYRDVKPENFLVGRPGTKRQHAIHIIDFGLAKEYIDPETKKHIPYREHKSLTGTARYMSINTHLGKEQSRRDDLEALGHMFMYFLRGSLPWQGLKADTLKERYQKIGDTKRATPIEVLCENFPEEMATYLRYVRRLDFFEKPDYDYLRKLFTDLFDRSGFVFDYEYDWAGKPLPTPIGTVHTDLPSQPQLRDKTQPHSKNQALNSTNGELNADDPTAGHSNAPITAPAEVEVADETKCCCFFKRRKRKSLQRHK

Compound: Oc1ccc(-c2nc(-c3ccc(F)cc3)c(-c3ccncc3)[nH]2)cc1
Kd (CAMK2B (human)): > 10 µM
Kd (BMP2K (human)): > 10 µM
Kd (CAMKK2 (human)): > 10 µM
Kd (CLK2 (human)): > 10 µM
Kd (CLK4 (human)): > 10 µM
Kd (EPHA3 (human)): > 10 µM
Kd (STK3 (mouse)): > 10 µM
Kd (DAPK2 (human)): > 10 µM
Kd (SLK (human)): > 10 µM
Kd (RPS6KA2 KD1 (human)): > 10 µM
Kd (STK17A (human)): > 10 µM
Kd (STK38L (human)): > 10 µM
Kd (DAPK3 (human)): > 10 µM
Kd (AURKA (human)): > 10 µM
Kd (ULK3 (human)): > 10 µM
Kd (AAK1 (human)): > 10 µM

Kd (BMX (human)): > 10 µM
Kd (RIPK2 (human)): > 10 µM
Kd (STK36 (human)): > 10 µM
Kd (FRK (human)): > 10 µM
Kd (PTK6 (human)): > 10 µM
Kd (PAK3 (human)): > 10 µM
Kd (CSNK1G2 (human)): > 10 µM
Kd (CAMK1G (human)): > 10 µM
Compound: O=C1c2ccccc2-c2n[nH]c3cccc1c23
